From publication PMC3592886, “Utilization of Quantitative In Vivo Pharmacology Approaches to Assess Combination Effects of Everolimus and Irinotecan in Mouse Xenograft Models of Colorectal Cancer” (PLoS ONE, 2013)
Like-named read-outs stand apart in the source and are kept apart here.

Legend:
[1] = test system: HCT116 tumor xenografts; assay: Therapeutic study and tumor growth modeling, HCT116 tumor xenografts; assay type: in vivo, mice
Procedure: For tumor bearing studies, cells were harvested and resuspended in a 1∶1 mixture of serum-free RPMI and Matrigel (BD Bioscience). One million cells were injected subcutaneously into each rear flank of mice. Tumor volumes, measured by digital calipers, were calculated by V (mm^3) = length x (width)^2 x 0.5236.
(§1) When HT29 and HCT116 tumors reached an average volume of ∼325 mm^3 animals were randomized into four treatment groups (n = 9–10 mice per group): (i) vehicles, (ii) 5 mg/kg everolimus (RAD) by oral gavage (PO) daily, (iii) 10 mg/kg irinotecan (IRI) once weekly by intravenous (iv) tail vein injection, and (iv) a combination of RAD and IRI. Everolimus, diluted in sterile water, and irinotecan, diluted in sterile 0.9% saline, were administered at 4 mL/kg. Animals were treated for 28 days. Tumor volumes and body weights were measured 2–3 times weekly. On day 28 of treatment 3–6 animals per group were sacrificed, approximately 24 hours following everolimus treatment, and tumors harvested for metabolomic analysis.
Data from the in vivo study was modeled to assess the therapeutic benefit of adding everolimus to irinotecan. The model used was similar to a previously published model for assessing combination therapy. Some modifications were made and details of the model can be found in Supplement S1 (section SA.3.) and Supplement S2. All modeling was performed on individual animal tumor volume data and modeled with SAAM II version 2.1. […]
are presented in Tables 1 and 2 in Supplement B. Individual fits of the model to the data can also be found in Supplement B. The average growth terms for each tumor type were then fixed at the average parameter value and used to determine the single agent effects (kx) of each compound by fitting the following equation: […] where cx(t) is the concentration of drug x with respect to time. Individual tumors were modeled and the average value of kx determined (Supplement B Tables 1 & 2) for each single agent treatment. This value was used to fit the following equation to the combination tumor growth data to determine the degree of interaction between the two drugs.
, the interaction term, was determined for each individual tumor for each tumor type and the data is presented in Table 2 in the main text and individual fits can be found in Supplement B.
We determined that values greater than 1.3 are synergistic, between 1.3 and 0.7 are additive, between 0.7 and 0 are less than additive, and negative values for are antagonistic. These ranges were selected based on the model fits. The CV% for the model fits ranged from 15 to 50 with an average CV% of approximately 30%. Therefore we assume an average variance of 30% making the additive range from 1.3 to 0.7 (1 + 30% and 1- 30%). […]

[2] = test system: HT29 cells; assay: In vitro metabolomics, HT29 cells; assay type: cell-based; conditions: 24 and 96 hours exposure to 30nM RAD001
Procedure: Metabolomics was performed in vitro on HCT116
(KRAS mt; PIK3CA mt) and HT29 (BRAF mt;
PIK3CA mt) cells after 0 (control), 24 and 96 hours exposure to 30nM RAD001. In both cell lines after 24 and 96 hours glucose uptake was reduced showing a decrease in proliferation. […]

[3] = test system: HCT116 cells; assay: Sulforhodamine B (SRB) anti-proliferation assay, HCT116; assay type: cell-based
Procedure: (§2) Cytoxic effects were determined using the sulforhodamine B (SRB) assay. Briefly, 5000 viable cells were plated into 96-well plates and incubated overnight prior to exposure with different concentrations of drugs. Cells were exposed to increasing concentrations of everolimus (0–200 nM), SN38 (0–8 nM), and combinations of the two. Following a 72 hour incubation, media was removed and cells were fixed with cold 10% trichloroacetic acid for 30 minutes at 4° C. Cells were washed with water and stained with 0.4% SRB for 30 minutes at room temperature. Cells were washed again with 1% acetic acid and stain was solubilized with 10 mM tris at room temperature and read at an OD of 565 nm. […] The resulting Combination Index (CI) was used as a quantitative measure of the degree of interaction between different drugs. A CI value equal to 1 denotes additivity; CI greater than 1, antagonism; CI less than 1, synergism.

[4] = Simulation of everolimus plasma concentrations at 5 mg/kg (two-compartment model); set-up: species or system mice
Procedure: Plasma and tumor pharmacokinetic parameters were calculated by noncompartmental analysis with WinNonlin. Everolimus plasma data was fit to a two-compartment model with first-order absorption and simulations of plasma concentrations at a 5 mg/kg dose of everolimus were performed by SAAM II version 2.1 (The Epsilon Group, Charlottesville, VA/University of Washington).
Everolimus [nmol/g tissue] […]
Everolimus plasma (A) and tumor (B) pharmacokinetics were measured in nude mice bearing HT29 xenografts.
10 (●) mg/kg everolimus daily for 7 days prior to sample collection.
Data represents the average of 3 samples and the lines represent the data fits to a two-compartment model with first-order absorption. The parameter estimates from the fits to the 2.5 and 10 mg/kg data were then used to simulate the steady-state dosing of 5 mg/kg RAD001 (C).
Simulations were generated based on daily dosing. Additional details of the study can be found in the main text.
To simulate data at different concentrations between 2.5 and 10 mg/kg the following assumptions were made; (1) everolimus absorption and its’ elimination from the central compartment is constant across dose levels, and (2) the volume of the central compartment varies linearly between doses. We believe these assumptions are valid since the pharmacokinetics appeared to be linear between 2.5 and 10 mg/kg doses, and the model fits the measured data at 2.5 and 10 mg/kg doses well and agrees with pharmacokinetic parameters estimated by non-compartmental analysis (Table S1). […]

[5] = everolimus, mice; cited from earlier work
[6] = test system: HCT116 tumors; assay: NMR-based metabolomics of HCT116 tumors; assay type: in vivo, mice; conditions: end of study
Procedure: as §1
(§3) For metabolomic analysis, animals were fasted for 4 hours then received 250 mg/kg of [1-^13C] glucose (Cambridge Isotopes, Cambridge, MA) by IV injection 60 minutes prior to tumor harvesting. Snap-frozen tumor specimens underwent two-phase acid extraction procedure (using 8% perchloric acid) previously established and extensively published [19]–[22]. Further details may also be found in Supplement S1 (section SA.2.).

[7] = everolimus, humans; cited from earlier work
[8] = test system: HT29 cells; assay: Sulforhodamine B (SRB) anti-proliferation assay, HT29; assay type: cell-based
Procedure: as §2

[9] = test system: HT29 tumors; assay: NMR-based metabolomics of HT29 tumors; assay type: in vivo, mice; conditions: end of study
Procedure: as §1, §3

[10] = everolimus 5 mg/kg dose in mice

CO[C@H]1C[C@@H]2CC[C@@H](C)[C@@](O)(O2)C(=O)C(=O)N2CCCC[C@H]2C(=O)O[C@H]([C@H](C)C[C@@H]2CC[C@@H](OCCO)[C@H](OC)C2)CC(=O)[C@H](C)/C=C(\C)[C@@H](O)[C@@H](OC)C(=O)[C@H](C)C[C@H](C)/C=C/C=C/C=C/1C [Everolimus, 40-O-(2-hydroxyethyl)-rapamycin]
k2 (SD), single agent effect ([1]; HCT116 (KRAS and PIK3CA mutant), RAD): 0.000482 (0.00011) mL/ng*day-1
average tumor growth inhibition, TGI ([1]; HCT116 xenografts, 5 mg/kg everolimus PO daily, 10 mg/kg irinotecan iv once weekly, or combination, 28 days): 44%
glucose uptake [2]: reduced
%Growth Inhibition ([3]; HCT116, RAD (20 nM), SN38 (4 nM) or the combination of the two, Figure 2): 49%
IC50 ([3]; Homo sapiens, HCT-116, HCT116 cells): 25 nM
AUCss,free ([4]; 5 mg/kg in mice, from simulated data): 37 ng·h/mL
average free concentration (Css,avg) [4, 10]: about 1.5 nM
free plasma concentration, Cmax [4, 10]: 6 nM
free plasma concentration, Cmin [4, 10]: 0.2 nM
plasma protein binding [5]: 99%
effects on glucose metabolism [6]: decrease in lactate and glycolysis
plasma protein binding [7]: 75%
%Growth Inhibition ([8]; HT29, RAD (20 nM), SN38 (4 nM) or the combination of the two, Figure 2): 74%
IC50 ([8]; Homo sapiens, HT-29, HT29 cells): 1.2 nM
effects on glucose metabolism [9]: decrease in lactate and glycolysis
